Results on one molecule are retold here after patent publication US10288626B2, “Secreted tumor-associated cytochrome as a blood-based biomarker for cancer” (University of Kentucky Research Foundation, priority 2012, dated 2019).

Broadly, the IC50 is the concentration that inhibits the measured activity by half.

Experiment [1] deals with EGFR. The following applies: cited from earlier work.
Experiment [2] deals with tumor cells. As to conditions: cited from earlier work.
The test system of experiment [3] is NCI-H226 cells. As to the kind of experiment: Viability / growth of NCI-H226 squamous cell lung cancer cells treated with AG-205. Type of experiment: cell-based. The following applies: 96 hours. Here is the method:
FIG. 2 depicts Pgrmc1 expression and biological activity in SCLC cell lines. (A) Pgrmc1 expression was tested in a group of 3 commonly used SCLC cell lines (upper panel), and ku70 was used as a loading control (lower panel). […] Cells were maintained in medium lacking serum for the indicated time and in all cases, viability was determined by cell counting. (C) Pgrmc1 expression was inhibited by siRNA transfection (upper panel, lane 2) relative to the control transfection (upper panel, lane 1). […] Cells were maintained in media lacking serum for the indicated times. (E) The expression of the exogenous Pgrmc1-hbd protein was detected by western blot in NCI-H226 cells infected with a control adenovirus (lane 1), encoding LacZ, or the Pgrmc1-hbd expression virus (lane 2). The top panel was probed with an antibody to the HA epitope tag sequence, with which Pgrmc1-hbd is fused. (F) NCI-H226 cells were treated with increasing doses of the Pgrmc1 inhibitor AG-205 and maintained with serum (dashed line) or without serum (solid line) for 96 hours.
Tissue culture: […], SK-MES-1 and SW900 squamous cell lung cancer cells and A549 lung adenocarcinoma cells were obtained from the American type culture collection (ATCC) and cultured according to their instructions. The identities of the cell lines were confirmed by Genetica DNA Laboratories (Cincinnati, Ohio). […]
Conditioned media from control and Pgrmc1 knockdown A549 NSCLC cells were generated by incubating cells in serum-free DMEM media for 24 hours. […] For fluorescent activated cell sorting (FACS), cells were stained with propidium iodide and analyzed as described (Mallory et al., Mol Pharmacol 2005, 68: 1747-56). […] For viability assays, cells were plated in 24 well dishes, washed with PBS and harvested by trypsinization and counted using a hemocytometer. Where indicated, cells were plated in 96 well dishes, and viability was measured by 3-(4,5-Dimethylthiazol-2-yl)-2,5-diphenyltetrazolium bromide (MTT) assay, as described (Hand and Craven. J Cell Biochem 2003, 90:534-47).

Take `Cc1ccc2c(c1)[C@H]1CN(C)CC[C@H]1N2C(=O)CSc1nnnn1-c1ccc(Cl)cc1` [AG-205]: in experiment [1], the “effect on EGFR levels” value is on record as “decreases EGFR levels”. In addition, in experiment [2], the “effect on growth in tumor cells” value is on record as “inhibits growth”. The IC50 in experiment [3] (absence of serum, read-out: IC50, growth inhibition of NCI-H226 cells) came to 9 µM. Besides, the “effect on viability of NCI-H226 cells” value in experiment [3] (absence of serum, increasing doses) was “loss of viability”. For the same molecule, the “activity on growth of NCI-H226 cells” value in experiment [3] (presence of serum) is given as “minimal activity”.
